In patent publication US20240261237A1, “REDUCING SIDE EFFECTS OF NMDA RECEPTOR ANTAGONISTS” (Seelos Therapeutics, Inc., priority 2021, published 2024):

Tests used:
[1] = test system: adults with major depressive disorder (MDD) at imminent risk of suicide; test: Example 4 Phase 2 study: adverse events; conditions: in vivo
[2] = test system: adults with major depressive disorder (MDD) at imminent risk of suicide; test: Example 4 Phase 2 study: STS-CMCM Risk of Suicide at Within the Next 7 Days; assay type: in vivo, human
Description: (§1) The CMCM version of the S-STS (S-STS CMCM) has four parts, and can also provide a comprehensive description of suicidal ideation and behavior. See, e.g., Sheehan et al., Innov. Clin. Neurosci. Vol. 11, No. 9-10, pp. 93-140 (2014) The S-STS CMCM (version 01/01/19) is a clinician-rated outcome measure which assesses SI/B on multiple patient and clinician-rated items. It includes 13 suicidality items that are rated on a Likert-type scale ranging from “not at all” (0) to “extremely” (4), yielding a total score ranging from 0 to 52. The final 6 items are used only when the patient misses a visit and is unable to complete the scale; if that missed visit is due to attempted or completed suicide, the possible maximum score is […]. The CMCM also yields 5 different single-item global assessments: 1) subject-rated likelihood of a suicide attempt; 2) subject-rated treatment needed; 3) clinician global severity of suicidal impulses, thoughts, and behaviors; 4) clinician judgment of suicide risk at this time and level of management needed for suicidality; and 5) clinician judgment of subject's likelihood of making a suicide attempt or of dying by suicide in the next 7 days.
(§2) The secondary endpoints are the change from baseline at 24 hours, as well as at Day 16, in the following: • (1) PGIS-SI/B (Day 16 only) • (2) S-STS total score (Day 16 only) • (3) CGI of Change in SI/B (CGIC-SI/B) • (4) PGI of Change in SI/B (PGIC-SI/B) • (5) S-STS Clinician-Rated Global Severity of Suicidal Impulses, Thoughts, and Behaviors • (6) S-STS Clinician judgment of subject's risk of a suicide attempt or death by suicide at this time • (7) S-STS Clinician judgment of subject's likelihood (risk) of making a suicide attempt or of dying by suicide in the next 7 days • (8) S-STS Subject-rated global severity of suicidal impulses, thoughts, and behavior • (9) S-STS Subject-rated treatment needed score • (10) MADRS item 10 response rate (response≤3 units) • (11) MADRS response (total score ≥50% reduction from baseline) • (12) MADRS remission (total score ≤12)

[3] = test system: adults with major depressive disorder (MDD) at imminent risk of suicide; test: Example 4 Phase 2 study: CADSS (dissociation); conditions: for CADSS change from baseline: at 40 minutes
[4] = test system: adults with major depressive disorder (MDD) at imminent risk of suicide; test: Example 4 Phase 2 study: STS-CMCM total score; assay type: in vivo, human; conditions: for STS mean score: baseline 21.9; for STS-CMCM score (range 0-52 units): 24 hours post-administration
Description: The Sheehan Suicidality Tracking Scale (Sheehan-STS, S-STS) is a prospective rating scale that tracks both treatment-emergent suicidal ideation and behaviors. The Sheehan-STS is a scale with 14 core items and nine additional questions contingent on the core responses that can be administered either by a clinician or patient through self-report. Each item in the Sheehan-STS is scored on a 5-point Likert scale (0=not at all, 1=a little, 2-moderately, 3=very, and 4-extremely).
as §1, §2

[5] = test system: adults with major depressive disorder (MDD) at imminent risk of suicide; test: Example 4 Phase 2 study: MADRS item 10 (suicidality); assay type: in vivo, human; conditions: for MADRS item 10 score: 24 hours post-administration
Description: (§3) MADRS is a diagnostic questionnaire that can be used to measure the severity of a depressive episode in a subject. In some embodiments, the MADRS can be used to measure the severity of depressive symptoms in a subject, for example, a subject suffering from MDD, TRD, bipolar depression, and other psychiatric disorders described herein with a depression component. In some embodiments, the MADRS can be used to measure TRD. In some embodiments, the MADRS can be used to measure other psychiatric disorders, as described herein. […]

[6] = test system: adults with major depressive disorder (MDD) at imminent risk of suicide; test: Example 4 Phase 2 study: STS-CMCM risk of suicide at this time; assay type: in vivo, human
Description: as §1, §2

[7] = in vivo; cited from earlier work
[8] = test system: adults with major depressive disorder (MDD) at imminent risk of suicide; test: Example 4 Phase 2 study: MOAA/S (sedation)
[9] = test system: adults with major depressive disorder (MDD) at imminent risk of suicide; test: Example 4 Phase 2 study: C-SSRS; conditions: 24 hours post-administration, baseline yes
[10] = test system: adults with major depressive disorder (MDD) at imminent risk of suicide; test: Example 4 Phase 2 study: MADRS Total; assay type: in vivo, human; conditions: both subjects; 24 hours
Description: The Montgomery-Åsberg Depression Rating Scale (MADRS) is used to assess the severity of depression among subjects who have a diagnosis of depression. The MADRS includes 10 items and uses a 0 to 6 severity scale, scored following the interview. Higher scores indicate increasing depressive symptoms. Ratings can be added to form an overall score (range 0 to 60); no weights are used. Cut-off points include: 0 to 6—symptom absent, 7 to 19—mild depression, 20 to 34—moderate, 35 to 60—severe depression.
as §3

subjects = conditions: in vivo; cited from earlier work

CNC1(c2ccccc2Cl)CCCCC1=O (racemic) [racemic ketamine, (R)-2-(2-chlorophenyl)-2-(methylamino)cyclohexanone and (S)-2-(2-chlorophenyl)-2-(methylamino)cyclohexanone]
serious adverse events [1]: no serious adverse events were observed | STS-CMCM Risk of Suicide at Within the Next 7 Days score ([2]; Subject 1, 24 hours post-administration, from 5 units): 2 units | STS-CMCM Risk of Suicide at Within the Next 7 Days score ([2]; Subject 2, 24 hours post-administration, baseline 7 units): 1 unit | STS-CMCM Risk of Suicide at Within the Next 7 Days score ([2]; the scores on Day 4): 1 unit | STS-CMCM Risk of Suicide at Within the Next 7 Days score ([2]; the scores on Day 8): 0 units | subjects with no dissociation (CADSS) ([3]; Days 1 and 4, 7 subjects): four of the 7 | subjects reporting dissociation ([3]; after Day 4 (on Day 11 at 40 minutes), 7 subjects): 1 | CADSS change from baseline ([3]; Day 4 (after second dose)): 2.3 | CADSS change from baseline ([3]; Day 8 (after third dose)): 0.4 | CADSS change from baseline ([3]; after first dose): 3.8 | sedation or dissociation ([3]; entire patient cohort to the Day 29/30 endpoint): no clinically meaningful sedation or dissociation | patients with >14 points within-patient change from baseline in STS ([4]; Day 1): 94% | patients with 4 points within-patient change in STS ([4]; Day 1, 1 patient): 6% | STS mean score ([4]; Day 1): 1.7 | STS mean score ([4]; Day 16): 0.0 | STS mean score ([4]; Day 29): 0.0 | STS-CMCM score (range 0-52 units) ([4]; Subject 1, from 18 units): zero | STS-CMCM score (range 0-52 units) ([4]; Subject 2, from 22 units): 3 units | MADRS item 10 score ([5]; Subject 1, baseline 5 units): 0 units | MADRS item 10 score ([5]; second subject (not named), baseline 5 units pre-dose): 0 units | sustained response (MADRS Item 10) after the final administration ([5]; with SOC): 15 days | STS-CMCM score (range 0-9; risk of suicide at this time) ([6]; Subject 1, 24 hours post-administration, baseline 7 units): 3 units | STS-CMCM score (range 0-9; risk of suicide at this time) ([6]; Subject 1, Day 9): 2 units | STS-CMCM score (range 0-9; risk of suicide at this time) ([6]; Subject 2, 24 hours post-administration, from 7 units): 3 units | STS-CMCM score (range 0-9; risk of suicide at this time) ([6]; Subject 2, Day 9): zero | STS-CMCM score (range 0-9; risk of suicide at this time) ([6]; both subjects, Day 8): 2 units | antidepressant properties [7]: exhibit antidepressant properties | MOAA/S score of the 1 subject with a score <5 units on subsequent dosing days ([8]; 6-hour time-point on Day 4): 4 units | subjects with MOAA/S score of 5 units at all time-points ([8]; Day 1, 7 subjects): 5 of 7 | MOAA/S score, all subjects ([8]; Day 1, no one below): ≥ 4 units | C-SSRS score for suicidal ideation (yes or no) ([9]; Subject 1): no | C-SSRS score for suicidal ideation (yes or no) ([9]; Subject 2): no | reduction of MADRS Total [10]: > 50% | movement during the anesthetic recovery phase / locomotor activity (subjects): increased movement during the anesthetic recovery phase

NC1(c2ccccc2Cl)CCCC(O)C1=O (stereo not shown) [6-hydroxynorketamine]
antidepressant properties [7]: exhibit antidepressant properties | movement during the anesthetic recovery phase / locomotor activity (subjects): no anesthetic or locomotor activity

NC1(c2ccccc2Cl)CCCCC1=O (stereo not shown) [norketamine]
movement during the anesthetic recovery phase / locomotor activity (subjects): increased movement during the anesthetic recovery phase
